Measured values: patent EP4691468A1, “PHARMACEUTICAL COMPOSITION FOR TREATING INFLAMMATORY BOWEL DISEASE” (EA Pharma Co., Ltd., priority 2023, dated 2024)

Assay: Phase 1 single-dose administration study: plasma concentration of Compound (2) by LC/MS/MS
Conditions: oral, single dose
Procedure: A phase 1 clinical trial was conducted to evaluate the safety, tolerability, and pharmacokinetics of Compound (1) when orally administered to healthy adult males.
This clinical trial was a single-center, randomized, double-blind, placebo-controlled, single and multiple ascending dose study with the primary objective of evaluating the safety and tolerability of Compound (1) when orally administered to healthy adult males.
The subjects in each cohort consisted of 8 people, of which 6 were assigned to Compound (1) and 2 were assigned to placebo, and they were administered the drug.
The plasma concentration of Compound (2) was measured using a validated measurement method. Specifically, plasma was separated from collected blood and processed, and then the plasma concentration was measured by an LC/MS/MS apparatus.
Compound (1) was orally administered once to 6 healthy adult males per dose and dosage form at doses of 6, 20, 100, 200, and 400 mg in the form of hard capsules (CAP), liquid self-emulsifying drug delivery system (L-SEDDS), or soft capsule self-emulsifying drug delivery system (C-SEDDS).

Cc1cc(=O)n(-c2ccc(C[C@H](NC(=O)c3cc(F)c(NS(=O)(=O)c4ccc(NC(=O)C(C)(C)C)cc4)cc3F)C(=O)O)cn2)c(=O)n1C [Compound (2)]
Average Plasma Concentrations of Compound (2) after Single-Dose Administration (Compound (1) 6 mg CAP, Time 1 h): 0.121 ng/mL
Average Plasma Concentrations of Compound (2) after Single-Dose Administration (Compound (1) 6 mg CAP, Time 1.5 h): 0.350 ng/mL
Average Plasma Concentrations of Compound (2) after Single-Dose Administration (Compound (1) 6 mg CAP, Time 2 h): 0.448 ng/mL
Average Plasma Concentrations of Compound (2) after Single-Dose Administration (Compound (1) 6 mg CAP, Time 2.5 h): 0.536 ng/mL
Average Plasma Concentrations of Compound (2) after Single-Dose Administration (Compound (1) 6 mg CAP, Time 3 h): 0.554 ng/mL
Average Plasma Concentrations of Compound (2) after Single-Dose Administration (Compound (1) 6 mg CAP, Time 4 h): 0.590 ng/mL
Average Plasma Concentrations of Compound (2) after Single-Dose Administration (Compound (1) 6 mg CAP, Time 5 h): 0.424 ng/mL
Average Plasma Concentrations of Compound (2) after Single-Dose Administration (Compound (1) 6 mg CAP, Time 6 h): 0.313 ng/mL
Average Plasma Concentrations of Compound (2) after Single-Dose Administration (Compound (1) 6 mg CAP, Time 7 h): 0.209 ng/mL
Average Plasma Concentrations of Compound (2) after Single-Dose Administration (Compound (1) 6 mg CAP, Time 8 h): 0.127 ng/mL
Average Plasma Concentrations of Compound (2) after Single-Dose Administration (Compound (1) 6 mg CAP, Time 12 h): 0.075 ng/mL
Average Plasma Concentrations of Compound (2) after Single-Dose Administration (Compound (1) 20 mg CAP, Time 1 h): 0.211 ng/mL
Average Plasma Concentrations of Compound (2) after Single-Dose Administration (Compound (1) 20 mg CAP, Time 1.5 h): 0.585 ng/mL
Average Plasma Concentrations of Compound (2) after Single-Dose Administration (Compound (1) 20 mg CAP, Time 2 h): 0.768 ng/mL
Average Plasma Concentrations of Compound (2) after Single-Dose Administration (Compound (1) 20 mg CAP, Time 2.5 h): 1.023 ng/mL
Average Plasma Concentrations of Compound (2) after Single-Dose Administration (Compound (1) 20 mg CAP, Time 3 h): 0.926 ng/mL
Average Plasma Concentrations of Compound (2) after Single-Dose Administration (Compound (1) 20 mg CAP, Time 4 h): 0.817 ng/mL
Average Plasma Concentrations of Compound (2) after Single-Dose Administration (Compound (1) 20 mg CAP, Time 5 h): 0.702 ng/mL
Average Plasma Concentrations of Compound (2) after Single-Dose Administration (Compound (1) 20 mg CAP, Time 6 h): 0.567 ng/mL
Average Plasma Concentrations of Compound (2) after Single-Dose Administration (Compound (1) 20 mg CAP, Time 7 h): 0.533 ng/mL
Average Plasma Concentrations of Compound (2) after Single-Dose Administration (Compound (1) 20 mg CAP, Time 8 h): 0.507 ng/mL
Average Plasma Concentrations of Compound (2) after Single-Dose Administration (Compound (1) 20 mg CAP, Time 12 h): 0.351 ng/mL
Average Plasma Concentrations of Compound (2) after Single-Dose Administration (Compound (1) 20 mg CAP, Time 15 h): 0.338 ng/mL
Average Plasma Concentrations of Compound (2) after Single-Dose Administration (Compound (1) 20 mg CAP, Time 21 h): 0.339 ng/mL
Average Plasma Concentrations of Compound (2) after Single-Dose Administration (Compound (1) 20 mg CAP, Time 24 h): 0.245 ng/mL
Average Plasma Concentrations of Compound (2) after Single-Dose Administration (Compound (1) 100 mg CAP, Time 1 h): 0.556 ng/mL
Average Plasma Concentrations of Compound (2) after Single-Dose Administration (Compound (1) 100 mg CAP, Time 1.5 h): 1.274 ng/mL
Average Plasma Concentrations of Compound (2) after Single-Dose Administration (Compound (1) 100 mg CAP, Time 2 h): 1.864 ng/mL
Average Plasma Concentrations of Compound (2) after Single-Dose Administration (Compound (1) 100 mg CAP, Time 2.5 h): 2.343 ng/mL
Average Plasma Concentrations of Compound (2) after Single-Dose Administration (Compound (1) 100 mg CAP, Time 3 h): 2.246 ng/mL
Average Plasma Concentrations of Compound (2) after Single-Dose Administration (Compound (1) 100 mg CAP, Time 4 h): 2.465 ng/mL
Average Plasma Concentrations of Compound (2) after Single-Dose Administration (Compound (1) 100 mg CAP, Time 5 h): 2.331 ng/mL
Average Plasma Concentrations of Compound (2) after Single-Dose Administration (Compound (1) 100 mg CAP, Time 6 h): 1.906 ng/mL
Average Plasma Concentrations of Compound (2) after Single-Dose Administration (Compound (1) 100 mg CAP, Time 7 h): 1.498 ng/mL
Average Plasma Concentrations of Compound (2) after Single-Dose Administration (Compound (1) 100 mg CAP, Time 8 h): 1.357 ng/mL
Average Plasma Concentrations of Compound (2) after Single-Dose Administration (Compound (1) 100 mg CAP, Time 12 h): 1.276 ng/mL
Average Plasma Concentrations of Compound (2) after Single-Dose Administration (Compound (1) 100 mg CAP, Time 15 h): 1.135 ng/mL
Average Plasma Concentrations of Compound (2) after Single-Dose Administration (Compound (1) 100 mg CAP, Time 21 h): 1.046 ng/mL
Average Plasma Concentrations of Compound (2) after Single-Dose Administration (Compound (1) 100 mg CAP, Time 24 h): 1.030 ng/mL
Average Plasma Concentrations of Compound (2) after Single-Dose Administration (Compound (1) 200 mg C-SEDDS, Time 0.5 h): Below quantitation limit
Average Plasma Concentrations of Compound (2) after Single-Dose Administration (Compound (1) 200 mg C-SEDDS, Time 1 h): Below quantitation limit
Average Plasma Concentrations of Compound (2) after Single-Dose Administration (Compound (1) 200 mg C-SEDDS, Time 1.5 h): 2.14 ng/mL
Average Plasma Concentrations of Compound (2) after Single-Dose Administration (Compound (1) 200 mg C-SEDDS, Time 2 h): 6.68 ng/mL
Average Plasma Concentrations of Compound (2) after Single-Dose Administration (Compound (1) 200 mg C-SEDDS, Time 2.5 h): 10.5 ng/mL
Average Plasma Concentrations of Compound (2) after Single-Dose Administration (Compound (1) 200 mg C-SEDDS, Time 3 h): 13.4 ng/mL
Average Plasma Concentrations of Compound (2) after Single-Dose Administration (Compound (1) 200 mg C-SEDDS, Time 4 h): 14.2 ng/mL
Average Plasma Concentrations of Compound (2) after Single-Dose Administration (Compound (1) 200 mg C-SEDDS, Time 5 h): 10.4 ng/mL
Average Plasma Concentrations of Compound (2) after Single-Dose Administration (Compound (1) 200 mg C-SEDDS, Time 6 h): 5.91 ng/mL
